ChEMBL document CHEMBL3585315, “Discovery of mammalian target of rapamycin (mTOR) kinase inhibitor CC-223” (J Med Chem, 2015)
pIC50: −log10 of the molar value.

Tests used:
[1] = Metabolic stability in rat S9 fraction assessed as compound remaining measured at 60 mins; assay type: ADME; conditions: read-out: Stability
[2] = Cmax in rat at 10 mg/kg, po; assay type: ADME, organism-based; design: dose 10 mg/kg, route oral; conditions: in vivo
[3] = Tmax in rat at 10 mg/kg, po; assay type: ADME, organism-based; conditions: in vivo
[4] = AUC (0 to infinity) in rat at 10 mg/kg, po; assay type: ADME, organism-based; design: dose 10 mg/kg, route oral, time infinity; conditions: in vivo
[5] = Oral bioavailability in rat at 10 mg/kg; assay type: ADME, organism-based; conditions: in vivo
[6] = Clearance in rat at 2 mg/kg, iv; assay type: ADME, organism-based; conditions: in vivo
[7] = molecular target: Phosphatidylinositol 4,5-bisphosphate 3-kinase catalytic subunit alpha isoform (Homo sapiens, UniProt P42336); assay: Inhibition of PI3K-alpha (unknown origin) by mobility shift assay
Sequence of Phosphatidylinositol 4,5-bisphosphate 3-kinase catalytic subunit alpha isoform (P42336 whole entry, canonical isoform): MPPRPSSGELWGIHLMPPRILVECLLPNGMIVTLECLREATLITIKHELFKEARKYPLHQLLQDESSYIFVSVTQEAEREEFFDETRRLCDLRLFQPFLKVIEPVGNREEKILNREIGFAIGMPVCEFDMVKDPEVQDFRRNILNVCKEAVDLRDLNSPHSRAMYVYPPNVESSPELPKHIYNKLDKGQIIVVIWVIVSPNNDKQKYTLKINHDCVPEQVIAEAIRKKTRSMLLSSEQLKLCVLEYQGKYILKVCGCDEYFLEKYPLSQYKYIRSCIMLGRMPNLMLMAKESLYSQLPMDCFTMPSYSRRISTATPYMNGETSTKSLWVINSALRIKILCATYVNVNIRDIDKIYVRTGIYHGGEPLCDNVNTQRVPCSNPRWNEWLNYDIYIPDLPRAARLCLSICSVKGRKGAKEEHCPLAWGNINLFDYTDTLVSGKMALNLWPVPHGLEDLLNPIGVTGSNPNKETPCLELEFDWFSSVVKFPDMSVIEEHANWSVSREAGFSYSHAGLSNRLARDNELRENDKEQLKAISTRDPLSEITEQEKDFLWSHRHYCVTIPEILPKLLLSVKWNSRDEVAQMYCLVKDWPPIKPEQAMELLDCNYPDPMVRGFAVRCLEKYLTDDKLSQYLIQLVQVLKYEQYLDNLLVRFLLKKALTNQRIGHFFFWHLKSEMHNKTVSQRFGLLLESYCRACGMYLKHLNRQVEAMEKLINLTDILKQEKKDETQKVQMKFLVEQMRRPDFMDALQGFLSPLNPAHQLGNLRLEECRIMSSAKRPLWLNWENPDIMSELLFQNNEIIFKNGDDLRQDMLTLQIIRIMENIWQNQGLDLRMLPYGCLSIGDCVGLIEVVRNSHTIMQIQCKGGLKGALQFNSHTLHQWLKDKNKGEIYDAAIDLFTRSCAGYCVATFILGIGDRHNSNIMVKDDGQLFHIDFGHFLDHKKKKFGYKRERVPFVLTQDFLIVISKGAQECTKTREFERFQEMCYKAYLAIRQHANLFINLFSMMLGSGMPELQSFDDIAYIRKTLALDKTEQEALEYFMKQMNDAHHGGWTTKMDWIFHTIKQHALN

[8] = Cmax in rat at 5 mg/kg, po; assay type: ADME, organism-based; design: dose 5 mg/kg, route oral; conditions: in vivo
[9] = AUC (0 to infinity) in rat at 5 mg/kg, po; assay type: ADME, organism-based; design: dose 5 mg/kg, time infinity, route oral; conditions: in vivo
cells = conditions: Homo sapiens, PC-3, 1 h
Mus musculus [10] = species on record: Mus musculus; assay: animal or person; conditions: PC-3, po, 2 h, read-out: INH
Mus musculus [11] = species on record: Mus musculus; assay: animal or person; conditions: PC-3, po, 2 h, read-out: INH; remark: listed apart in the source
Mus musculus [12] = species on record: Mus musculus; assay: animal or person; conditions: PC-3, po, 4 h, read-out: INH
Mus musculus [13] = species on record: Mus musculus; assay: animal or person; conditions: PC-3, po, 8 h, read-out: INH
Mus musculus [14] = species on record: Mus musculus; assay: animal or person; conditions: PC-3, po, 24 h, read-out: INH
Mus musculus [15] = species on record: Mus musculus; assay: animal or person; conditions: PC-3, po, 4 h, read-out: INH; remark: listed apart in the source
Mus musculus [16] = species on record: Mus musculus; assay: animal or person; conditions: PC-3, po, 8 h, read-out: INH; remark: listed apart in the source
Mus musculus [17] = species on record: Mus musculus; assay: animal or person; conditions: PC-3, po, 24 h, read-out: INH; remark: listed apart in the source
[18] = Oral bioavailability in rat at 5 mg/kg; assay type: ADME, organism-based; conditions: in vivo
PC-3 [19] = assay: Antitumor activity against human PC3 cells xenografted in mouse assessed as tumor volume reduction at 50 mg/kg, po qd for 21 days relative to control; assay type: functional; design: scale not given: the % may be the effect or the level left
PC-3 [20] = conditions: Homo sapiens
PC-3 [21] = conditions: Homo sapiens, TDE = time-dependent effect
PC-3 [22] = assay: Antitumor activity against human PC3 cells xenografted in mouse assessed as tumor volume reduction at 25 mg/kg, po qd for 21 days relative to control; assay type: functional; design: scale not given: the % may be the effect or the level left
[23] = molecular target: Vascular endothelial growth factor receptor 3 (Homo sapiens, UniProt P35916); assay: Inhibition of Flt4 (unknown origin)
Sequence of Vascular endothelial growth factor receptor 3 (P35916 whole entry): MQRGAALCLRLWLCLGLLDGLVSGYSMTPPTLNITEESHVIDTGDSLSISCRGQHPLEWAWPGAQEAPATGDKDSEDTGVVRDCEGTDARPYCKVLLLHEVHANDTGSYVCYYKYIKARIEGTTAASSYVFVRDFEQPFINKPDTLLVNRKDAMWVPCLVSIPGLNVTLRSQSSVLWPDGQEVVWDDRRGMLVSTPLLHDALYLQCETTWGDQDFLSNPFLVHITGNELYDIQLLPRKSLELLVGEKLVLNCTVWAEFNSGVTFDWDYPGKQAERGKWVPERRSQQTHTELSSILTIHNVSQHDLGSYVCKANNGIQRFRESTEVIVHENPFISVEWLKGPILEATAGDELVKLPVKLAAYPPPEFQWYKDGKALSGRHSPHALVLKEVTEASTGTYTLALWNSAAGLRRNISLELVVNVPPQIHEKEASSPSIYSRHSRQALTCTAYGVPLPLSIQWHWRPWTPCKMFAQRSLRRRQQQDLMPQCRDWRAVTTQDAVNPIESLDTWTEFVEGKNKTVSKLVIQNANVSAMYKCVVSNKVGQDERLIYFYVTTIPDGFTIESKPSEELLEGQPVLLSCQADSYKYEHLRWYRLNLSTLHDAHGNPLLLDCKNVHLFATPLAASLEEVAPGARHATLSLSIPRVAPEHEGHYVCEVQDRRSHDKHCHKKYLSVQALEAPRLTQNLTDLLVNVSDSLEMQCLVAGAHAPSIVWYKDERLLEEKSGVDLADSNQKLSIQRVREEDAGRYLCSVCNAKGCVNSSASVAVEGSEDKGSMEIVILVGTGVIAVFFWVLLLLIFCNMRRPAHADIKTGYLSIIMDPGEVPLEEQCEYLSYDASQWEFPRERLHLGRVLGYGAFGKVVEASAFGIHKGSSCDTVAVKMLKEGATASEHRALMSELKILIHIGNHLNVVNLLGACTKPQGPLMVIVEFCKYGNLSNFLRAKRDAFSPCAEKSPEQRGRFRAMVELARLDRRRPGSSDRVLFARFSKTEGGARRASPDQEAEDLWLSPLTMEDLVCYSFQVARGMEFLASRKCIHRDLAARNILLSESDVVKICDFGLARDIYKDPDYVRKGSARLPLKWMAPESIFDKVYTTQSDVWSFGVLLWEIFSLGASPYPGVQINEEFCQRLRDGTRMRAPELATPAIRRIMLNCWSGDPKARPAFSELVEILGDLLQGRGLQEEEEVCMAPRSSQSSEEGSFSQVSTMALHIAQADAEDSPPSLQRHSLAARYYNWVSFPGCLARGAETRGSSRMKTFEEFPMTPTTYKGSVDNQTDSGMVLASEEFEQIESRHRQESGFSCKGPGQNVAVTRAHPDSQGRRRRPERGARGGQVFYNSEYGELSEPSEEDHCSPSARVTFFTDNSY

[24] = Inhibition of CYP450 (unknown origin) up to 10 uM; assay type: ADME; conditions: human
Salmonella typhi = assay: Mutagenicity in Salmonella typhi by Ames test; assay type: toxicity, organism-based; conditions: salmonella enterica subsp. enterica serovar […]
[25] = Genotoxicity in mouse erythrocytes by micronucleus test; assay type: toxicity, cell-based; conditions: erythrocyte
PC-3 [26] = conditions: Homo sapiens, TDE = time-dependent effect; remark: listed apart in the source
[27] = molecular target: Serine/threonine-protein kinase mTOR (Homo sapiens, UniProt P42345); assay: Inhibition of recombinant mTOR (unknown origin) using GST-p70S6 as substrate after 60 mins by TR-FRET analysis
[28] = Inhibition of mTORC2 in human PC3 cells assessed as inhibition of AKT phosphorylation at S473 by sandwich immunoassay; assay type: cell-based; conditions: PC-3
PC-3 [29] = assay: Cytotoxicity against human PC3 cells assessed as inhibition of cell proliferation after 3 days by WST1 assay; assay type: functional, cell-based; conditions: PC-3, 72 h
[30] = Tmax in rat at 5 mg/kg, po; assay type: ADME, organism-based; conditions: in vivo
PC-3 [31] = assay: Antitumor activity against human PC3 cells xenografted in mouse assessed as tumor volume reduction at 100 mg/kg, po bid with 10 hrs separation between morning and evening doses for 21 days relative to control; assay type: functional; design: scale not given: the % may be the effect or the level left
PC-3 [32] = conditions: Homo sapiens; remark: listed apart in the source
PC-3 [33] = conditions: Homo sapiens, TDE = time-dependent effect; remark: listed apart in the source

Compound	remaining at 1 h [1] [%]	pIC50 [7]	Cmax [8] [nM]	AUC(0-inf) [9] [µM·h]	pIC50 (cells)	inhibition in vivo at 100 mg/kg (Mus musculus [12]) [%]	inhibition in vivo at 100 mg/kg (Mus musculus [13]) [%]	inhibition in vivo at 100 mg/kg (Mus musculus [14]) [%]	inhibition in vivo at 100 mg/kg (Mus musculus [15]) [%]	inhibition in vivo at 100 mg/kg (Mus musculus [16]) [%]	inhibition in vivo at 100 mg/kg (Mus musculus [17]) [%]	also measured
O=c1[nH]c2ncc(-c3ccc(-c4nc[nH]n4)cc3)nc2n1CCC1CCOCC1	93											Cmax [2]: 24 nM; Tmax [3]: 60 min; AUC(0-inf) [4]: 0.11 µM·h; bioavailability [5]: 0.85%; clearance [6]: 32 mL/min/kg
O=C1CNc2ncc(-c3ccc(-c4ncn[nH]4)cc3)nc2N1CCC1CCOCC1	48	7.00										
CC(C)(O)c1ccc(-c2cnc3c(n2)N(C2CCOCC2)CC(=O)N3)cn1		5.33										
CC(C)(O)c1ccc(-c2cnc3c(n2)N(CC2CCCCC2)CC(=O)N3)cn1	16	4.75										
O=C1CN(CCC2CCOCC2)c2nc(-c3ccc(-c4nc[nH]n4)cc3)cnc2N1	61											Cmax [2]: < 2.13 nM; clearance [6]: 13.8 mL/min/kg
CC(C)(O)c1ccc(-c2cnc3c(n2)N([C@H]2CC[C@H](O)CC2)C(=O)CN3)cn1		5.72	2200	9.23								
CO[C@H]1CC[C@@H](N2CC(=O)Nc3ncc(-c4ccc(C(C)(C)O)nc4)nc32)CC1		4.95	2770	26.6	6.48	54	52	70	34	59	45	inhibition in vivo at 100 mg/kg (Mus musculus [10]): 80%; inhibition in vivo at 100 mg/kg (Mus musculus [11]): 72%
CO[C@H]1CC[C@H](N2CC(=O)Nc3ncc(-c4ccc(C(C)(C)O)nc4)nc32)CC1	94	4.79	6300	90	6.46	90	85	85	62	69	61	clearance [6]: 1.7 mL/min/kg; bioavailability [18]: 70%; Activity (PC-3 [19]): 90%; TGI (PC-3 [20]): Dose-dependent effect; TGI (PC-3 [21]): tde; inhibition in vivo at 100 mg/kg (Mus musculus [10]): 87%; inhibition in vivo at 100 mg/kg (Mus musculus [11]): 75%
COCCN1CC(=O)Nc2ncc(-c3ccc(C(C)(C)O)nc3)nc21		4.98										
CO[C@H]1CC[C@H](CN2CC(=O)Nc3ncc(-c4ccc(C(C)(C)O)nc4)nc32)CC1	77	4.69	700	7.25	6.80	80	64	0	55	55	0	
Cc1cc(-c2nc[nH]n2)ccc1-c1cnc2c(n1)N(CCC1CCOCC1)C(=O)CN2		6.92										
O=C1CN(CCC2CCOCC2)c2nc(-c3ccc(-c4nc[nH]n4)nc3)cnc2N1		5.80										
COCCN1C(=O)CNc2ncc(-c3ccc(C(C)(C)O)nc3)nc21	89	5.21	5600	29	6.21	82	91	91	87	84	77	
CC(C)(O)c1ccc(-c2cnc3c(n2)N(C2CCOCC2)C(=O)CN3)cn1		5.49										
CC(C)(O)c1ccc(-c2cnc3c(n2)N(CC2CCOCC2)C(=O)CN3)cn1	83	5.42	1600	9.9	6.89	93	94	91	86	81	80	
CC(C)(O)c1ccc(-c2cnc3c(n2)N([C@H]2CC[C@@H](O)CC2)C(=O)CN3)cn1		5.55										
Cc1cc(-c2nc[nH]n2)ccc1-c1cnc2c(n1)N(CCC1CCOCC1)CC(=O)N2		6.70										
CO[C@H]1CC[C@H](N2C(=O)CNc3ncc(-c4ccc(C(C)(C)O)nc4)nc32)CC1 [ONATASERTIB]			2900	26		91	92	91	80	82	86	clearance [6]: 4.9 mL/min/kg; bioavailability [18]: 59%; Activity (PC-3 [22]): 87%; pIC50 [23]: 6.19; inhibition (INH) [24]: Not Active; Activity (Salmonella typhi): Non-toxic; Activity [25]: Non-toxic; TGI (PC-3 [20]): Dose-dependent effect; TGI (PC-3 [26]): tde
CC(C)(O)c1ccc(-c2cnc3c(n2)N(CC2CCOCC2)CC(=O)N3)cn1	100	< 4.52			6.49	86	88	83	73	71	65	Activity (PC-3 [19]): 84%; TGI (PC-3 [20]): Dose-dependent effect; TGI (PC-3 [21]): tde; inhibition in vivo at 100 mg/kg (Mus musculus [10]): 88%; inhibition in vivo at 100 mg/kg (Mus musculus [11]): 85%
CO[C@H]1CC[C@@H](CN2C(=O)CNc3ncc(-c4ccc(C(C)(C)O)nc4)nc32)CC1		5.60										
CC(C)(O)c1ccc(-c2cnc3[nH]c(=O)n(CCC4CCOCC4)c3n2)cn1	91	< 4.52	1800	4.8								pIC50 [27]: 7.19; pIC50 [28]: 6.20; pIC50 (PC-3 [29]): 5.63; clearance [6]: 15 mL/min/kg; Tmax [30]: 30 min; bioavailability [18]: 43%
CO[C@H]1CC[C@H](CN2C(=O)CNc3ncc(-c4ccc(C(C)(C)O)nc4)nc32)CC1	55	5.33										
CC(C)(O)c1ccc(-c2cnc3c(n2)N(CCC2CCOCC2)CC(=O)N3)cn1	95		1500	11	6.96	63	64	0	63	67	28	clearance [6]: 23 mL/min/kg; Tmax [30]: 90 min; bioavailability [18]: 100%; Activity (PC-3 [31]): 72%; TGI (PC-3 [32]): Dose-dependent effect; TGI (PC-3 [33]): tde; inhibition in vivo at 100 mg/kg (Mus musculus [10]): 87%; inhibition in vivo at 100 mg/kg (Mus musculus [11]): 74%
CO[C@H]1CC[C@@H](CN2CC(=O)Nc3ncc(-c4ccc(C(C)(C)O)nc4)nc32)CC1	39	5.12										
CC(C)(O)c1ccc(-c2cnc3c(n2)N(CCC2CCOCC2)C(=O)CN3)cn1	73		1700	14	7.05	80	88	59	63	78	69	clearance [6]: 9 mL/min/kg; Tmax [30]: 36 min; bioavailability [18]: 58%; Activity (PC-3 [19]): 59%; TGI (PC-3 [20]): Dose-dependent effect; TGI (PC-3 [21]): tde; inhibition in vivo at 100 mg/kg (Mus musculus [10]): 71%; inhibition in vivo at 100 mg/kg (Mus musculus [11]): 82%
